Reference: ChEMBL document CHEMBL5055663, “Histamine H3 receptor antagonists with peptidomimetic (keto)piperazine structures to inhibit Aβ oligomerisation” (Bioorg Med Chem, 2021)
Activity calls are given as the source filed them. No cut-off for these calls is given here.

Legend:
Histamine H3 receptor [1] = target: T1, Histamine H3 receptor (Homo sapiens, UniProt Q9Y5N1); assay: Antagonist activity at histamine H3 receptor (unknown origin)
[2] = target: T2, Amyloid-beta precursor protein (Homo sapiens, UniProt P05067); assay: Binding affinity to CM-5 sensor chip immobilized beta-amyloid monomer (1 to 42) (unknown origin) at 200 uM by SPR analysis
Histamine H3 receptor [3] = target: T1, Histamine H3 receptor; assay: Displacement of [3H]Nalpha-methylhistamine from recombinant human histamine H3 receptor expressed in HEK293 cells incubated for 90 mins by competition binding assay; format: cell-based
[4] = target: T2, Amyloid-beta precursor protein; assay: Binding affinity to CM-5 sensor chip immobilized beta-amyloid monomer (1 to 42) (unknown origin) assessed as dissociation constant by SPR analysis

T1 sequence (Q9Y5N1 whole entry): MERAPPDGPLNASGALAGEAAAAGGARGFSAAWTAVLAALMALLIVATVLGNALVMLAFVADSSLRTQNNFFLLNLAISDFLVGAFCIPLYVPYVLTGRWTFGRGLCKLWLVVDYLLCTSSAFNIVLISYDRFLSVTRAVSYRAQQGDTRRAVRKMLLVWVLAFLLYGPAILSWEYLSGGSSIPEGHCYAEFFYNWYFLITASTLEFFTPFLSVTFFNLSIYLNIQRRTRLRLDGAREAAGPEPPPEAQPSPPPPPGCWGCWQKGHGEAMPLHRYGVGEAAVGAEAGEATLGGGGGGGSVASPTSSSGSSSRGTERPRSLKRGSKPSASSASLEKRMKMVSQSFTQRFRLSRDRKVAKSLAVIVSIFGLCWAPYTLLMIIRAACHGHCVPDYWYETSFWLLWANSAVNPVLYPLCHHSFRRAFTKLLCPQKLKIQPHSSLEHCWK
T2 sequence (P05067 whole entry): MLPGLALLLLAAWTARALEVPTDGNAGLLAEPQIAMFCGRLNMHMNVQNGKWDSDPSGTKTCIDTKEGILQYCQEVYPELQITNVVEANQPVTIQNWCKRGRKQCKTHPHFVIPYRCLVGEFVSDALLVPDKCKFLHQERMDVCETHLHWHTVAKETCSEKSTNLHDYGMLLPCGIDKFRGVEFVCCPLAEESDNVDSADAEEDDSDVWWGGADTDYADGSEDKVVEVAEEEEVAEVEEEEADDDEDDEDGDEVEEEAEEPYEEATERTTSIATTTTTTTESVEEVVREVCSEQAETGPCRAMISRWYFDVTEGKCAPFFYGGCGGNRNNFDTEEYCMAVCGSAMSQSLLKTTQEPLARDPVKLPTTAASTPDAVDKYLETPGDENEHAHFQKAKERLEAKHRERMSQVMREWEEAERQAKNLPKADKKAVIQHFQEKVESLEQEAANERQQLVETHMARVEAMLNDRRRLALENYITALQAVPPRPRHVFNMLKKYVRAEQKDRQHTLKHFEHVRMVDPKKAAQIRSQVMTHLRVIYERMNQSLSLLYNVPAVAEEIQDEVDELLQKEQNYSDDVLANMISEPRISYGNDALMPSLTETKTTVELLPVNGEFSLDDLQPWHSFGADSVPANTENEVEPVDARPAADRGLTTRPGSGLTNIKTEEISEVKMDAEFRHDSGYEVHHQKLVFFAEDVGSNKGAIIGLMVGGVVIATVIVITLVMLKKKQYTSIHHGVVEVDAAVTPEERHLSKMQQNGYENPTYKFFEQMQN

SMILES | Ki (Histamine H3 receptor [1]) | Activity [2] | Ki (Histamine H3 receptor [3]) | Kd [4]
CN1C[C@H]2CCN(c3ccc(-c4ccc(-n5ncccc5=O)cc4)cc3)[C@H]2C1 | 0.002 µM |  |  | 
O=C1CNC(=O)[C@@H](Cc2ccc(OCCCN3CCCCC3)cc2)N1 |  | inactive | 0.158 µM | 
O=C1CNC(=O)/C(=C/c2ccc(OCCCN3CCCCC3)cc2)N1 |  | inactive | 0.0223 µM | 
O=C1CN(Cc2ccc(OCCCN3CCCCC3)cc2)C(=O)CN1 |  |  | 0.0049 µM | 1550 µM
O=C1N[C@@H](Cc2ccc(OCCCN3CCCCC3)cc2)C(=O)N[C@H]1Cc1ccccc1 |  | inactive | 0.039 µM | 12000 µM
C[C@@H]1NC(=O)[C@H](Cc2ccc(OCCCN3CCCCC3)cc2)NC1=O |  | inactive | 0.159 µM | 
c1cc(OCCCN2CCCCC2)ccc1C[C@H]1CNCCN1 |  | inactive | 0.002 µM | 
O=c1[nH]/c(=C\c2ccc(OCCCN3CCCCC3)cc2)c(=O)[nH]/c1=C\c1ccccc1 |  | inactive | 0.0038 µM | 
O=C1CN(C(=O)c2ccc(OCCCN3CCCCC3)cc2)CCN1 |  |  | 0.0028 µM | 
c1ccc(C[C@H]2CN[C@@H](Cc3ccc(OCCCN4CCCCC4)cc3)CN2)cc1 |  | inactive | 0.0011 µM | 
CC(=O)N1CC(=O)N/C(=C\c2ccc(OCCCN3CCCCC3)cc2)C1=O |  | inactive | 0.0038 µM | 
O=C1N[C@@H](Cc2ccccc2)C(=O)N/C1=C\c1ccc(OCCCN2CCCCC2)cc1 (stereo in doubt) |  | inactive | 0.002 µM | 
O=C1CN(C(=O)c2ccc(OCCCN3CCCCC3)cc2)CCN1Cc1ccccc1 |  |  | 0.0049 µM | 
O=C1CN(Cc2ccc(OCCCN3CCCCC3)cc2)CCN1Cc1ccccc1 |  |  | 0.0113 µM | 51.6 µM
CC(=O)N1C(=O)/C(=C/c2ccc(OCCCN3CCCCC3)cc2)NC(=O)[C@@H]1Cc1ccccc1 |  | inactive | 0.0044 µM | 
O=C1CNC(=O)[C@H](Cc2ccc(OCCCN3CCCCC3)cc2)N1 |  | inactive | 0.074 µM | 
CC(C)[C@@H]1NC(=O)[C@H](Cc2ccc(OCCCN3CCCCC3)cc2)NC1=O |  | inactive | 0.219 µM | 
